Source: patent US9878054B2, “Polypeptide and lipophilic moiety conjugate compositions, formulations, and uses related thereto” (Tufts Medical Center, Inc., priority 2012, dated 2018)
pEC50: −log10 of the molar value.

Assays:
[1] = test system: human platelets (thrombin); experiment: Thrombin-induced aggregation of human platelets; type: cell-based; conditions: 3 μM compound
Protocol: A, Depiction of the mechanism of action of the cell-penetrating PZ-128 pepducin compound targeting the third intracellular loop (red) of PAR1. B, The NMR structure of PZ-128 was determined by simulated annealing methods using 210 distance restraints and included restraints to the proximal 3 hydrocarbons of the lipid. […] D, PZ-128 inhibits PAR1-dependent platelet aggregation. Gel filtered human platelets were treated with various concentrations of PZ-128 and then challenged with the PAR1 agonist SFLLRN (2.5 μM), 20 μM ADP, 200 μM AYPGKF or 1 mg/ml Ristocetin. E, Human platelets were treated with 3 μM PZ-128, 3 μM RWJ-56110, or 5% dextrose vehicle before the addition of various concentrations of thrombin (n=3-5).
PZ-128 also markedly right-shifted thrombin-induced aggregation by 5-fold. By comparison, the small molecule RWJ-56110 which antagonizes PAR1 at the extracellular ligand-binding site gave a 2-fold right shift in the thrombin activation curve of human platelets.
Whole blood from healthy donors was collected into a 30 ml syringe containing sodium citrate (0.4% vol/vol final). Platelets were isolated from platelet rich plasma (PRP) using Sepharose 2B columns in modified PIPES buffer.

[2] = test system: human whole blood; experiment: Activated clotting time (ACT) of blood from PCI patients; conditions: iv 0.75 mg/kg bolus then 1.75 mg/kg/hr, 30 min
Protocol: PZ-128 (χ) was spiked at various concentrations (0-150 μM) into fresh whole blood obtained from patients just prior to PCI. By comparison, blood was obtained at the 30 min time point from PCI patients (n=22) after a weight-adjusted dosage of bivalirudin (•) administered intravenously as a 0.75 mg/kg bolus followed by continuous infusion of 1.75 mg/kg/hr during the procedure. ACT assays were performed immediately using a Hemochron 801 with FTCA510-4 ACT cartridges containing silica, phospholipids, and diatomaceous earth (kaolin). The open circle represents the mean (±SD) ACT and mean bivalirudin concentration at the 30 min time point in the 22 PCI patients.
The effects of PZ-128 micelles were measured on activated clotting time (ACT) in human blood samples freshly obtained from adult patients undergoing PCI. At concentrations of PZ-128 up to 150 μM, there were no effects on ACT in the human PCI blood samples (FIG. 5).
Adult outpatients with angina referred for coronary angiography or PCI were enrolled in the Tufts Medical Center Adult Cardiac Catheterization Laboratory. Blood was collected prior to PCI or angiography and PZ-128 micelles were spiked into 1 ml samples of whole blood at a range of final concentrations (0-150 μmol/L). ACT was measured immediately in duplicate. […] Bivalirudin concentrations in plasma were measured by LC/MS/MS.

[3] = test system: PAR1; conditions: read-out: EC50, activation of guinea pig platelets; PRP from vehicle-treated guinea pigs
[4] = cited from earlier work
[5] = test system: guinea pig carotid artery thrombosis; experiment: Guinea pig carotid artery FeCl3 injury arterial thrombosis model; type: in vivo; conditions: sub-therapeutic dose alone (PZ-128 0.05 mg/kg; clopidogrel 1 mg/kg PO)
Protocol: A carotid artery FeCl3 injury model was used in guinea pigs to assess the anti-thrombotic efficacy of PZ-128 micelles within 15 min of initiation of drug administration. FeCl3 denudes the artery and exposes type I collagen and other subendothelial matrix proteins to initiate platelet-dependent thrombosis. Guinea pigs received 10 min intravenous infusions of PZ-128 micelles, 5 min prior to carotid artery injury. […] Mean occlusion times increased by 4-fold to 40 min at doses above 0.05 mg/kg PZ-128.
Male Hartley guinea pigs (150˜220 g) were purchased from Charles River Laboratories. A 0.61 mm-diameter catheter was inserted into the left jugular vein of anesthetized animals for administration of infusions of 5% USP dextrose vehicle or PZ-128 micelles. A 0.5 V-Doppler probe (Transonic Systems, Ithaca, N.Y.) was placed around the right carotid artery to record blood flow. A range of doses of PZ-128 micelles from 0.05 to 1.6 mg/kg in 0.9 ml volumes were delivered at an injection rate of 0.09 ml/min by a Harvard syringe pump. Five minutes after the infusion ended, arterial thrombosis was induced by placing a 5×5 mm^2 piece of filter paper soaked in freshly made 20% FeCl3 solution on the right carotid artery 5 mm distal to the probe for 20 minutes. […] To examine possible synergistic effects of PZ-128 micelles and P2Y12-ADP receptor inhibition, 1 mg/kg clopidogrel was administered by oral gavage 4 hours prior to FeCl3 injury. In these synergy experiments, the maximum endpoint was set at 90 minutes for occlusion time.

Compound: NCC[C@H](NC(=O)[C@H](Cc1ccc(F)c(F)c1)NC(=O)Nc1ccc2c(CN3CCCC3)cn(Cc3c(Cl)cccc3Cl)c2c1)C(=O)NCc1ccccc1 [RWJ-56110, reference compound]
- Right shift of thrombin-induced aggregation curve [1]: 2 fold

Compound: CC[C@H](C)[C@H](NC(=O)[C@H](CCC(=O)O)NC(=O)[C@H](CCC(=O)O)NC(=O)[C@H](Cc1ccccc1)NC(=O)[C@H](CC(=O)O)NC(=O)CNC(=O)[C@H](CC(N)=O)NC(=O)CNC(=O)CNC(=O)CNC(=O)CNC(=O)[C@@H]1CCCN1C(=O)[C@H](CCCNC(=N)N)NC(=O)[C@@H]1CCCN1C(=O)[C@H](N)Cc1ccccc1)C(=O)N1CCC[C@H]1C(=O)N[C@@H](CCC(=O)O)C(=O)N[C@@H](CCC(=O)O)C(=O)N[C@@H](Cc1ccc(O)cc1)C(=O)N[C@@H](CC(C)C)C(=O)O [bivalirudin]
- Activated clotting time (ACT) [2]: highly elevated

Compound: SFLLRN
- pEC50 [3]: 5.60

Compound: CCOC(=O)N[C@@H]1CC[C@@H]2[C@@H](C1)C[C@H]1C(=O)O[C@H](C)[C@H]1[C@H]2/C=C/c1ccc(-c2cccc(F)c2)cn1 [vorapaxar]
- Pharmacodynamic (PD) half-life ([4]; oral administration): up to 3 weeks
- Plasma half-life ([4]; single loading dose): 120 to 264 h

Compound: COC(=O)[C@H](c1ccccc1Cl)N1CCc2sccc2C1 [clopidogrel, reference compound]
- Protection against arterial occlusion when used alone [5]: non-significant protection
